The results in this text go back to publication PMC3187668 (Chemmedchem, 2011).

The target in this experiment is PI3Kα (Homo sapiens, UniProt P42336). Nature of the experiment: […]-ATP lipid kinase assay. The format is biochemical.
Chain of PI3Kα (P42336 whole entry): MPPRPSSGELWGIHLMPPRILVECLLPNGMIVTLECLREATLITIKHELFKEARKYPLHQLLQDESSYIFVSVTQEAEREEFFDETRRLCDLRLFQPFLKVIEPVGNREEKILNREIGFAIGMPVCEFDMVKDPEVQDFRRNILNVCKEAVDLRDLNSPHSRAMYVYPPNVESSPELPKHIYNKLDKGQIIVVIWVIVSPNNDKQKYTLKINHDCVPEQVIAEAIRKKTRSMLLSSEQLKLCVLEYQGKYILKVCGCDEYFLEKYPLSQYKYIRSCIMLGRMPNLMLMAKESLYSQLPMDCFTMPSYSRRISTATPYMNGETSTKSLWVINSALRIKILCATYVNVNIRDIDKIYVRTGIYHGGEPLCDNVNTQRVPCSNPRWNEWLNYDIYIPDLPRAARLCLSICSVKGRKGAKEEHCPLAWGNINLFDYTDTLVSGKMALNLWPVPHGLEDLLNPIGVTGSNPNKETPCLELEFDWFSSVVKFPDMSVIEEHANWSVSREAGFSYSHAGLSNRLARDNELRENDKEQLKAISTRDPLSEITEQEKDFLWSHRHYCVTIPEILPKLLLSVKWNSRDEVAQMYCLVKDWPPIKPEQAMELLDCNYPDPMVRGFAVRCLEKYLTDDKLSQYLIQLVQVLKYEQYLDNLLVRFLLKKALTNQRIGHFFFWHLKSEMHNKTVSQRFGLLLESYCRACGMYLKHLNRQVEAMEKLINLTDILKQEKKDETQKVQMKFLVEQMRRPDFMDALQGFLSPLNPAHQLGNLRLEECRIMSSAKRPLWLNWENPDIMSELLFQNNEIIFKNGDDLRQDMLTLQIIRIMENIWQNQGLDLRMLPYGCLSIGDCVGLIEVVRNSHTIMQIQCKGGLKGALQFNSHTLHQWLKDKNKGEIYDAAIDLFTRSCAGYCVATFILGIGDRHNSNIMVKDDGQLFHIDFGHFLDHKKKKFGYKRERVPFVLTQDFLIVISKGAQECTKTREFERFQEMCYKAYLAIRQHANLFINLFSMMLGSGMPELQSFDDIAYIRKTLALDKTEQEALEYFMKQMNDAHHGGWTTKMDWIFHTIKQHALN
Chain of PI3Kα (P27986 2-724 partner): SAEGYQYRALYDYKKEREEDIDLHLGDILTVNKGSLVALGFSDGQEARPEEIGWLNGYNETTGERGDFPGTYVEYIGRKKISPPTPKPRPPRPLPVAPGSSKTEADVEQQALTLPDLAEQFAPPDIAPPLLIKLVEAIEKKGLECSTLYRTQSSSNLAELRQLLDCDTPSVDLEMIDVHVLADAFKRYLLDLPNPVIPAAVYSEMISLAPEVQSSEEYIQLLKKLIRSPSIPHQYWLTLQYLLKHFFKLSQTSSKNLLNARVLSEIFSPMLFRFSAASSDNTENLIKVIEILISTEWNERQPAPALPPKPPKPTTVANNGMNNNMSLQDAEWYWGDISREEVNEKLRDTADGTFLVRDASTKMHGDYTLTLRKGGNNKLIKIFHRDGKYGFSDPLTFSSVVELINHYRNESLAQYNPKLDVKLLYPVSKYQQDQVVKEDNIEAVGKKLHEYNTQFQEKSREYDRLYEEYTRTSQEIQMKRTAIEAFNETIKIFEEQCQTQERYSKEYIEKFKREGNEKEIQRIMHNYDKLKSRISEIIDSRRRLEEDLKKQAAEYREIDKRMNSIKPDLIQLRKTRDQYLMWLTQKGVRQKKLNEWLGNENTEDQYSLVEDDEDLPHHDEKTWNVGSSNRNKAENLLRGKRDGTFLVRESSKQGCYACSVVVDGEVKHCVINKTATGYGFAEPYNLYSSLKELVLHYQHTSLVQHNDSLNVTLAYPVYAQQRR

Take `O=C1NC(=S)SC1=Cc1ccc2nccnc2c1` [compound 19, 19]: the IC50 (commonly the concentration needed to halve the response being measured) was determined as 3 nM.
